Molecular target: Dipeptidyl peptidase 8 (Homo sapiens, UniProt Q6V1X1)
Assay: Inhibition of FLAG-tagged human DPP8 expressed in 293-F cells pre-incubated for 20 mins before Gly-Pro-pNA substrate addition and measured after 90 mins
Format: cell-based

Chain of Dipeptidyl peptidase 8 (Q6V1X1 whole entry): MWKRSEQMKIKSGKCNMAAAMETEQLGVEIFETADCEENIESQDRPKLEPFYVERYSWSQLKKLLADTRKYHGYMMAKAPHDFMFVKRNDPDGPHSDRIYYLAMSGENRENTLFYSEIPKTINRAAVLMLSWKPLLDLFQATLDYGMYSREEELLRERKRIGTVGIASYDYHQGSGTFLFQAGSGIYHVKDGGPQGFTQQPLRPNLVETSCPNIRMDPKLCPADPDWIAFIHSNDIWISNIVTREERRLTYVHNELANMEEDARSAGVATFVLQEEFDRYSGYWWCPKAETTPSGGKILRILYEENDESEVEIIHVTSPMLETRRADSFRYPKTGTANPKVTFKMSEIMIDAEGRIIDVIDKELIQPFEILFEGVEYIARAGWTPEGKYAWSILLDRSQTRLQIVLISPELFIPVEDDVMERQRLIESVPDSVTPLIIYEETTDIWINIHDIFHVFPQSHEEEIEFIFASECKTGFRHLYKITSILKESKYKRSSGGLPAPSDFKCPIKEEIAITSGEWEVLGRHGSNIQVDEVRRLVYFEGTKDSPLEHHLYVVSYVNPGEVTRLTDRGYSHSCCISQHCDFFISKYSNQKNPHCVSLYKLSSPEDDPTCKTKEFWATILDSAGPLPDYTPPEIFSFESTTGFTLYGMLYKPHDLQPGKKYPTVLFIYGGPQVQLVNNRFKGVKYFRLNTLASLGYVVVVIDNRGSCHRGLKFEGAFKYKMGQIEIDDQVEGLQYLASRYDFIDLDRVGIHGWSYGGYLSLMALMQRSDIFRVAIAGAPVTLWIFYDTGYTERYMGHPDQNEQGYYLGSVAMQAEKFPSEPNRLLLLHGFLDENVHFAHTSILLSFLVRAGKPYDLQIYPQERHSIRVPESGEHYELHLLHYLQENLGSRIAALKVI

Compound	IC50 [nM]
Cc1ccc(-c2c(CN)c(CC(C)C)nc(C)c2C(=O)OCc2ccc(C(=O)O)cc2)cc1	> 100000

System: Rattus norvegicus
Assay: Ex vivo inhibition of DPP4 in Sprague-Dawley rat plasma at 1 mg/kg, po after 1 to 6 hrs using Gly-Pro-pNA substrate
Format: functional

Compound	inhibition in vivo at 1 mg/kg [%]
Cc1ccc(-c2c(CN)c(CC(C)C)nc3ccc(-c4nc(C(=O)O)cs4)cc23)cc1	> 50

Molecular target: Dipeptidyl peptidase 4 (Homo sapiens, UniProt P27487)
Sequence (P27487 whole entry): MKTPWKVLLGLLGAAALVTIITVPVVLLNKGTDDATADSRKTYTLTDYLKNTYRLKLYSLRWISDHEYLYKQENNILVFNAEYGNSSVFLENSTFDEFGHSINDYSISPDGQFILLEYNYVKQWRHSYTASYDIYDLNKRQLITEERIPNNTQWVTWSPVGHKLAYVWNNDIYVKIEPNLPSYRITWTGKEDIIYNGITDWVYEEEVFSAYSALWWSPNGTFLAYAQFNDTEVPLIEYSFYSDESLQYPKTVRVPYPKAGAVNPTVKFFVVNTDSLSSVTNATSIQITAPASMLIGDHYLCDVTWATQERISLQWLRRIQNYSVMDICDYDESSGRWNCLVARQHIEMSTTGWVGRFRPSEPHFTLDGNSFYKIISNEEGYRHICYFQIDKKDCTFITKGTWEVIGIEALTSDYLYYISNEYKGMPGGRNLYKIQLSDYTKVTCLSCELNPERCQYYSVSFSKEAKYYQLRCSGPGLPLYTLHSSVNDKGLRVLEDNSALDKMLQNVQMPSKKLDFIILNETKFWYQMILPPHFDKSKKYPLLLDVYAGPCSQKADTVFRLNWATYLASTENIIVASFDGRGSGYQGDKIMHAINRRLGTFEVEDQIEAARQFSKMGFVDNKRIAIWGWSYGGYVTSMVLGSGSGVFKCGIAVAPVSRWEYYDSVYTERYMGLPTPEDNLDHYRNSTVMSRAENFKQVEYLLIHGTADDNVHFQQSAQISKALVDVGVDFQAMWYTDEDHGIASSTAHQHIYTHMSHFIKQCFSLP
Description: Inhibition of human DPP4 purified from Caco2 cells pre-incubated for 15 mins before Gly-Pro-pNA substrate addition and measured after 60 mins

Compound	IC50 [nM]
Cc1ccc(-c2c(CCc3nc(C(=O)O)cs3)c(C)nc(CC(C)C)c2CN)cc1	2.6
CCCc1nc2ccc(OCC(N)=O)cc2c(-c2ccccc2)c1CN	510
Cc1ccc(-c2c(CN)c(CC(C)C)nc3ccc(OCC(=O)O)cc23)cc1	140
NCc1c(Cc2ccccc2)nc2ccc(OCC(N)=O)cc2c1-c1ccccc1	720
Cc1ccc(-c2c(CN)c(CC(C)C)nc3ccc(OCCCCCC(=O)O)cc23)cc1	6.8
Cc1ccc(-c2c(-c3nc(C(N)=O)cs3)cnc(CC(C)C)c2CN)cc1	2.1
CC(C)Cn1c(CN)c(-c2ccccc2)c2cc(C(N)=O)cnc2c1=O	470
CCCCCc1nc2ccc(OCC(N)=O)cc2c(-c2ccccc2)c1CN	540
CC(C)Cn1c(CN)c(-c2ccccc2)c2cc(Br)cnc2c1=O	1200
Cc1ccc(-c2c(CCc3nc(C(N)=O)cs3)c(C)nc(CC(C)C)c2CN)cc1	8.5
CC(C)(C)Cc1nc2ccc(OCC(N)=O)cc2c(-c2ccccc2)c1CN	250
Cc1ccc(-c2c(CN)c(CC(C)C)nc(C)c2C(=O)OCc2ccccc2C(=O)O)cc1	29
Cc1ccc(-c2c(CN)c(CC(C)C)nc(C)c2C(=O)OCc2ccc(C(=O)O)cc2)cc1	17
Cc1ccc(-c2c(CN)c(CC(C)C)nc3ccc(-c4nc(C(=O)O)cs4)cc23)cc1	0.38
Cc1ccc(-c2c(CN)c(CC(C)C)nc3ccc(-c4ccc(C(=O)O)o4)cc23)cc1	28
Cc1ccc(-c2c(COCc3ccc(C(=O)O)cc3)c(C)nc(CC(C)C)c2CN)cc1	7.2
CC(C)Cn1c(CN)c(-c2ccccc2)c2cc(Br)ccc2c1=O	1200
Cc1ccc(-c2c(CN)n(CC(C)C)c(=O)c3ccc(OCC(N)=O)cc23)cc1	220
Cc1ccc(-c2c(CN)c(CC(C)C)nc3ccc(OCCCC(=O)O)cc23)cc1	17
Cc1ccc(-c2c(CN)c(CC(C)C)nc(C)c2C(=O)OC[C@H]2CC[C@H](C(=O)O)CC2)cc1	80
Cc1ccc(-c2c(/C=C/c3nc(C(=O)O)cs3)c(C)nc(CC(C)C)c2CN)cc1	5.5
Cc1ccc(-c2c(CN)c(CC(C)C)nc3ccc(OCCC(=O)O)cc23)cc1	29
CC(C)Cc1nc2ccc(Br)cc2c(-c2ccccc2)c1CN	630
Cc1ccc(-c2c(CN)c(CC(C)C)nc(C)c2C(=O)OCc2cccc(C(=O)O)c2)cc1	87
CCCCc1nc2ccc(OCC(N)=O)cc2c(-c2ccccc2)c1CN	620
Cc1ccc(-c2c(CN)c(CC(C)C)nc(C)c2C(=O)OCCCC(=O)O)cc1	470
CC(C)Cc1nc2ccc(C(N)=O)cc2c(-c2ccccc2)c1CN	170
Cc1ccc(-c2c(CN)c(CC(C)C)nc3ccc(OCCCCC(=O)O)cc23)cc1	4.6
Cc1ccc(-c2c(CN)c(CC(C)C)nc3ccc(OCCCCC(N)=O)cc23)cc1	13
CC(=O)c1csc(-c2cnc(CC(C)C)c(CN)c2-c2ccc(C)cc2)n1	8.7

From ChEMBL document CHEMBL4033726, “Design of potent dipeptidyl peptidase IV (DPP-4) inhibitors by employing a strategy to form a salt bridge with Lys554” (Bioorg Med Chem Lett, 2017)
